In publication PMC8156151 (The European Respiratory Journal, 2021):

What was measured:
Type in all cases: in vivo, human
[1] = TD139 concentration in BAL alveolar macrophages, ELF and plasma
Method: Full plasma PK profiles were conducted on days 1 (first day of dosing) and 14 (last day of dosing). […] Standard noncompartmental methods were applied to derive PK parameters using Phoenix WinNonlin version 6.3 (Certara, Sheffield, UK). […] Drug compartment measurements in BAL alveolar macrophages and fluid were determined as described previously.

Periostin = assay: Plasma biomarker periostin; details: for Periostin raw data, Mean (SD) / Periostin least square means % baseline±SEM: IPF patients
Method: (§1) All patients, investigators, sites and study sponsor personnel were blinded to the study group assignments throughout the study. Patients underwent study-specific assessments on days 2, 3, 7, 14 and 15, and a post-study assessment was carried out 26–30 days after the last day of the study period. Assessments included vital signs (supine blood pressure, pulse, oxygen saturation, oral temperature and respiratory rate), spirometry, 12-lead ECG, physical examination, laboratory safety screen (haematology, biochemistry, urinalysis and urinary drugs of abuse screen) and blood sampling for PK measurements. All adverse events and concomitant medications were recorded from the time of the screening visit until the post-study follow-up visit. BAL was performed at day −1 (24 h before the first dose) and at day 14 (2 h after the last dose). The BAL procedure was performed as per international guidelines. Briefly, 240 mL of 0.9% saline at room temperature was instilled in 40 mL aliquots into the right middle lobe and aspirated by suction after each aliquot.
(§2) BAL cells were separated from fluid by centrifugation, and cells were collected, stained with antibodies (supplementary material) and then fixed before analysis using a LSR Fortessa flow cytometer (Becton Dickinson, Franklin Lakes, NJ, USA). Data were analysed using FlowJo software (Tree Star, Ashland, OR, USA). Macrophages were identified as having high side scatter properties and human leukocyte antigen-DR positivity. Gal-3 expression (mean fluorescence intensity) was determined from the macrophage gate (supplementary figures S1 and S2). […] Samples were analysed by magnetic Luminex assay (R&D Systems, Minneapolis, MN, USA) or ELISA.
(§3) For part 2 of the study, placebos were combined from the three dose-specific cohorts into a pooled control group (n=9). For alveolar macrophage Gal-3 expression and the plasma biomarkers, ANCOVA was performed for percentage of baseline ((day 14/day 1)×100). The ANCOVA model included effects for treatment group and baseline (day 1) value. […] An additional analysis including dose as a continuous covariate was also performed. The Pearson correlation coefficient (r) and associated p-value were calculated for percentage of baseline and day 14 values between plasma biomarkers and alveolar macrophage Gal-3 expression. […] The analysis is exploratory and there was no pre-planned adjustment for multiple testing; the study was not powered for this. Alveolar macrophage Gal-3 expression was considered the primary exploratory analysis with the pre-selected biomarkers secondary. A Bonferroni correction for multiple testing of the secondary end-points comparing the 10 mg group with placebo gives a critical value of 0.0063. Data are presented as the difference in least square means with 95% confidence interval and p-value unless otherwise stated. All analyses were performed using SAS version 9.4 (SAS Institute, Cary, NC, USA). […]

PDGF-BB = assay: Plasma biomarker PDGF-BB (Luminex/ELISA); details: for PDGF-BB raw data, Mean (SD) / PDGF-BB least square means % baseline±SEM: IPF patients
Method: as §1, §2, §3

MIF = assay: Plasma biomarker MIF; details: for MIF raw data, Mean (SD) / MIF least square means % baseline±SEM: IPF patients
Method: as §1, §2, §3

healthy subjects = assay: Safety and tolerability (TEAEs), part 1, single inhaled dose
Method: Subjects were discharged 24 h post-dose (day 2) provided there were no safety concerns, and returned for three outpatient visits on days 3, 8 and 14 post-dose, with a post-study follow-up between days 26 and 30. Safety and PK assessments were made at predetermined time-points.
Following completion of dosing for the final subject in each dosing cohort, an interim dose review meeting was held with a safety committee consisting of the principal investigator, medical monitor, pharmacokineticist and statistician to review the safety, tolerability and PK data (study design schematic shown in figure 1). The study statistician and pharmacokineticist were unblinded at the end of each cohort in order to conduct the analyses required for dose review decisions. The primary end-point was the safety and tolerability of single or multiple doses of TD139 in healthy subjects or IPF patients, respectively.

[2] = healthy subjects, single inhaled 0.15 mg
[3] = healthy subjects, single inhaled 1.5 mg
[4] = healthy subjects, single inhaled 3 mg
[5] = healthy subjects, single inhaled 10 mg
[6] = healthy subjects, single inhaled 20 mg
[7] = healthy subjects, single inhaled 50 mg

OC[C@H]1O[C@@H](S[C@@H]2O[C@H](CO)[C@H](O)[C@H](n3cc(-c4cccc(F)c4)nn3)[C@H]2O)[C@H](O)[C@@H](n2cc(-c3cccc(F)c3)nn2)[C@H]1O [TD139]
correlation between concentrations of TD139 in ELF and AMs (r) ([1]; all active cohorts, day 14): 0.89 (95% CI 0.70–0.96)
correlation between concentrations of TD139 in plasma (total) and AMs (r) ([1]; all active cohorts, day 14): 0.89 (95% CI 0.65–0.96)
Kp at 2 h ([1]; human, inhaled, concentration of TD139 in BAL macrophages (lung) relative to systemic exposure (blood), IPF patients, 2 h post-dosing on day 14): > 567
Periostin difference in least square means % baseline (95% CI) (Periostin; 10 mg vs placebo, ANCOVA): −5.4 (−18.8–8.0) % baseline
Periostin raw data, Mean (SD) (Periostin; Day 14, 0.3 mg): 125952.3 (17487.63) pg/ml
Periostin raw data, Mean (SD) (Periostin; Day 14, 3 mg): 142019.1 (30390.08) pg/ml
Periostin raw data, Mean (SD) (Periostin; Day 14, 10 mg): 108663.7 (24686.82) pg/ml
Periostin least square means % baseline±SEM (Periostin; day 14, 0.3 mg once daily): 114.0±5.3 % baseline
Periostin least square means % baseline±SEM (Periostin; day 14, 3 mg once daily): 99.3±5.2 % baseline
Periostin least square means % baseline±SEM (Periostin; day 14, 10 mg once daily): 93.1±5.0 % baseline
PDGF-BB difference in least square means % baseline (95% CI) (PDGF-BB; 10 mg vs placebo, ANCOVA): −239.5 (−384.8– −94.2) % baseline
PDGF-BB raw data, Mean (SD) (PDGF-BB; Day 14, 0.3 mg): 1519 (1034.92) pg/ml
PDGF-BB raw data, Mean (SD) (PDGF-BB; Day 14, 3 mg): 2201.9 (2935.52) pg/ml
PDGF-BB raw data, Mean (SD) (PDGF-BB; Day 14, 10 mg): 1131.4 (1190.78) pg/ml
PDGF-BB least square means % baseline±SEM (PDGF-BB; day 14, 0.3 mg once daily): 90.5±55.2 % baseline
PDGF-BB least square means % baseline±SEM (PDGF-BB; day 14, 3 mg once daily): 103.7±54.1 % baseline
PDGF-BB least square means % baseline±SEM (PDGF-BB; day 14, 10 mg once daily): 35.7±54.2 % baseline
MIF difference in least square means % baseline (95% CI) (MIF; 10 mg vs placebo, ANCOVA): −120.2 (−339.2–98.9) % baseline
MIF raw data, Mean (SD) (MIF; Day 14, 0.3 mg): 65871.3 (42284.53) pg/ml
MIF raw data, Mean (SD) (MIF; Day 14, 3 mg): 38884 (35236.82) pg/ml
MIF raw data, Mean (SD) (MIF; Day 14, 10 mg): 39660.6 (57202.1) pg/ml
MIF least square means % baseline±SEM (MIF; day 14, 0.3 mg once daily): 123.6±83.6 % baseline
MIF least square means % baseline±SEM (MIF; day 14, 3 mg once daily): 95.9±83.9 % baseline
MIF least square means % baseline±SEM (MIF; day 14, 10 mg once daily): 73.9±83.7 % baseline
safety and tolerability (healthy subjects; healthy subjects, single doses up to 50 mg): safe and well tolerated
Subjects reporting ≥1 TEAE: Serious TEAE (healthy subjects; [2]): 0 n (%)
Subjects reporting ≥1 TEAE: TEAE (healthy subjects; [2]): 0 n (%)
Subjects reporting ≥1 TEAE: TEAE leading to withdrawal (healthy subjects; [2]): 0 n (%)
Subjects with TEAE by relationship to study IMP: Almost definite (healthy subjects; [2]): 0 n (%)
Subjects with TEAE by relationship to study IMP: Possible (healthy subjects; [2]): 0 n (%)
Subjects with TEAE by relationship to study IMP: Probable (healthy subjects; [2]): 0 n (%)
Subjects with TEAE by relationship to study IMP: Unlikely (healthy subjects; [2]): 0 n (%)
Subjects with TEAE by severity: Mild (healthy subjects; [2]): 0 n (%)
TEAEs (healthy subjects; [2]): 0 n
Subjects reporting ≥1 TEAE: Serious TEAE (healthy subjects; [3]): 0 n (%)
Subjects reporting ≥1 TEAE: TEAE (healthy subjects; [3]): 0 n (%)
Subjects reporting ≥1 TEAE: TEAE leading to withdrawal (healthy subjects; [3]): 0 n (%)
Subjects with TEAE by relationship to study IMP: Almost definite (healthy subjects; [3]): 0 n (%)
Subjects with TEAE by relationship to study IMP: Possible (healthy subjects; [3]): 0 n (%)
Subjects with TEAE by relationship to study IMP: Probable (healthy subjects; [3]): 0 n (%)
Subjects with TEAE by relationship to study IMP: Unlikely (healthy subjects; [3]): 0 n (%)
Subjects with TEAE by severity: Mild (healthy subjects; [3]): 0 n (%)
TEAEs (healthy subjects; [3]): 0 n
Subjects reporting ≥1 TEAE: Serious TEAE (healthy subjects; [4]): 0 n (%)
Subjects reporting ≥1 TEAE: TEAE (healthy subjects; [4]): 2 (50.0) n (%)
Subjects reporting ≥1 TEAE: TEAE leading to withdrawal (healthy subjects; [4]): 0 n (%)
Subjects with TEAE by relationship to study IMP: Almost definite (healthy subjects; [4]): 1 (25.0) n (%)
Subjects with TEAE by relationship to study IMP: Possible (healthy subjects; [4]): 0 n (%)
Subjects with TEAE by relationship to study IMP: Probable (healthy subjects; [4]): 0 n (%)
Subjects with TEAE by relationship to study IMP: Unlikely (healthy subjects; [4]): 1 (25.0) n (%)
Subjects with TEAE by severity: Mild (healthy subjects; [4]): 2 (50.0) n (%)
TEAEs (healthy subjects; [4]): 2 n
Subjects reporting ≥1 TEAE: Serious TEAE (healthy subjects; [5]): 0 n (%)
Subjects reporting ≥1 TEAE: TEAE (healthy subjects; [5]): 3 (75.0) n (%)
Subjects reporting ≥1 TEAE: TEAE leading to withdrawal (healthy subjects; [5]): 0 n (%)
Subjects with TEAE by relationship to study IMP: Almost definite (healthy subjects; [5]): 3 (75.0) n (%)
Subjects with TEAE by relationship to study IMP: Possible (healthy subjects; [5]): 2 (50.0) n (%)
Subjects with TEAE by relationship to study IMP: Probable (healthy subjects; [5]): 0 n (%)
Subjects with TEAE by relationship to study IMP: Unlikely (healthy subjects; [5]): 0 n (%)
Subjects with TEAE by severity: Mild (healthy subjects; [5]): 3 (75.0) n (%)
TEAEs (healthy subjects; [5]): 7 n
Subjects reporting ≥1 TEAE: Serious TEAE (healthy subjects; [6]): 0 n (%)
Subjects reporting ≥1 TEAE: TEAE (healthy subjects; [6]): 4 (100.0) n (%)
Subjects reporting ≥1 TEAE: TEAE leading to withdrawal (healthy subjects; [6]): 0 n (%)
Subjects with TEAE by relationship to study IMP: Almost definite (healthy subjects; [6]): 4 (100.0) n (%)
Subjects with TEAE by relationship to study IMP: Possible (healthy subjects; [6]): 1 (25.0) n (%)
Subjects with TEAE by relationship to study IMP: Probable (healthy subjects; [6]): 1 (25.0) n (%)
Subjects with TEAE by relationship to study IMP: Unlikely (healthy subjects; [6]): 0 n (%)
Subjects with TEAE by severity: Mild (healthy subjects; [6]): 4 (100.0) n (%)
TEAEs (healthy subjects; [6]): 7 n
Subjects reporting ≥1 TEAE: Serious TEAE (healthy subjects; [7]): 0 n (%)
Subjects reporting ≥1 TEAE: TEAE (healthy subjects; [7]): 4 (100.0) n (%)
Subjects reporting ≥1 TEAE: TEAE leading to withdrawal (healthy subjects; [7]): 0 n (%)
Subjects with TEAE by relationship to study IMP: Almost definite (healthy subjects; [7]): 4 (100.0) n (%)
Subjects with TEAE by relationship to study IMP: Possible (healthy subjects; [7]): 3 (75.0) n (%)
Subjects with TEAE by relationship to study IMP: Probable (healthy subjects; [7]): 0 n (%)
Subjects with TEAE by relationship to study IMP: Unlikely (healthy subjects; [7]): 0 n (%)
Subjects with TEAE by severity: Mild (healthy subjects; [7]): 4 (100.0) n (%)
TEAEs (healthy subjects; [7]): 10 n
biochemistry, haematology, vital signs or 12-lead ECG data (healthy subjects; part 1, healthy subjects): no clinically significant safety findings or treatment- or dose-related changes observed
incidence of cough (healthy subjects; part 1, healthy subjects): 11.1%
incidence of mild dysgeusia (most commonly occurring TEAE) (healthy subjects; part 1, healthy subjects): 36.1%
